The target of the assay is T1, human 4lg B7-H3 (Homo sapiens, UniProt Q5ZPR3).
T1 sequence (Q5ZPR3 29-534): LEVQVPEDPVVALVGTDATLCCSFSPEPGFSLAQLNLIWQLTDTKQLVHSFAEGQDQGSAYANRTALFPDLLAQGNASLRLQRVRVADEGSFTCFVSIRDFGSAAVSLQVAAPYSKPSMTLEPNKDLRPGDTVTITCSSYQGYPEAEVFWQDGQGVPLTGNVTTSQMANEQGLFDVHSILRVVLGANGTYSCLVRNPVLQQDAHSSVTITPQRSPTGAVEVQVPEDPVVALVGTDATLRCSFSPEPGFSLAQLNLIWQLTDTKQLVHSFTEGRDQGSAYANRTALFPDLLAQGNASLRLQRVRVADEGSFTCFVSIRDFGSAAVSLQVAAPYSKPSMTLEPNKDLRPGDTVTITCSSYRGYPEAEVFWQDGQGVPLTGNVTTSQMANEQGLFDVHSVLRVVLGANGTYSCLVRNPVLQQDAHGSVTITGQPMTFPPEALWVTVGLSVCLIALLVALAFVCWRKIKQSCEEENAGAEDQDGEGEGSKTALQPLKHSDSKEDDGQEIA
Nature of the assay: Affinity determination by surface plasmon resonance (SPR) to 4Ig B7-H3. In general terms: In SPR one partner is held on a chip, and binding of the other changes the refractive index at the surface.

Setting [1] is: SPR KD—37° C., 4Ig B7-H3, 37° C. flow cell temperature.
Where [2] appears, read: SPR KD—25° C., 4Ig B7-H3, 25° C. flow cell temperature.

This note sets out measurements from patent publication US20250296959A1, “B7-H3 TARGETING PEPTIDES AND CONSTRUCTS THEREOF” (Mariana Oncology Inc., priority 2024, published 2025).

Read-outs that look alike come from different tables or passages of the source. Starred links: 1 amine or outer side, 2 acyl side, 3 side chain; linkers in the order of their positions; H or OH if unused. Positions of bridges follow the written chain, without caps; N, C: chain ends. Non-standard residues stand in square brackets, D forms with d. Residues, ends and D or L forms follow the SMILES beside them. Groups on a side chain read outwards from the residue. *: point of attachment. Ala(piperidin-4-yl) = O=C([C@H](CC1CCN([*:3])CC1)N[*:1])[*:2]; DOTA = O=C(O)CN1CCN(CC(=O)O)CCN(CC(=O)*)CCN(CC(=O)O)CC1; Tyr(SO2F) = N[C@@H](Cc1ccc(OS(=O)(=O)F)cc1)C(=O)O; Trp(5-F) = N[C@@H](Cc1c[nH]c2ccc(F)cc12)C(=O)O; Trp(7-aza) = N[C@@H](Cc1c[nH]c2ncccc12)C(=O)O; X1 = C[C@@H](c1ccccc1)[C@H](N[*:1])C(=O)[*:2]; Ala(4-THP) = N[C@@H](CC1CCOCC1)C(=O)O; Phe(2-Me) = Cc1ccccc1C[C@H](N)C(=O)O; Val(3-OH) = CC(C)(O)[C@H](N)C(=O)O; Aad = N[C@@H](CCCC(=O)O)C(=O)O; Cha = N[C@@H](CC1CCCCC1)C(=O)O; PEG4 = NCCOCCOCCOCCOCCC(=O)O; Tle = CC(C)(C)[C@H](N)C(=O)O; hLeu = CC(C)CC[C@H](N)C(=O)O; NMeS = CN[C@@H](CO)C(=O)O; Nle = CCCC[C@H](N)C(=O)O; Orn = NCCC[C@H](N)C(=O)O A value given as a limit tells only on which side of the number the result lay.

In general, Kd refers to the free concentration of one partner at which half of the binding sites on the other are occupied at equilibrium, for simple one-to-one binding. Regarding `CCCC[C@H](NC(=O)[C@H](Cc1c[nH]c2ccc(F)cc12)NC(=O)[C@@H]1CSSC[C@H](NC(=O)[C@H](Cc2ccc(O)cc2)NC(=O)[C@H](CCC(C)C)NC(C)=O)C(=O)N[C@@H](C(C)(C)C)C(=O)NCC(=O)N[C@@H](CCCCNC(=O)CN2CCN(CC(=O)O)CCN(CC(=O)O)CCN(CC(=O)O)CC2)C(=O)N[C@@H](CC2CCOCC2)C(=O)N[C@@H](CC(=O)O)C(=O)N[C@@H](C(C)C)C(=O)N[C@@H](Cc2ccc(O)cc2)C(=O)N1)C(=O)N[C@H](C(N)=O)C(C)(C)O` [compound 336, Ac-hLeu-Y-C-Tbg-G-Lys(DOTA)-ThpA-D-V-Y-C-5FW-Nle-hydroxyVal-CONH2] (Ac-[hLeu]YC[Tle]GK(DOTA)[Ala(4-THP)]DVYC[Trp(5-F)][Nle][Val(3-OH)]-NH2; disulfide 3-11), the Kd under setting [1] is 10 to 100 nM.

In turn, `CC(=O)N[C@@H](CCC(C)C)C(=O)N[C@@H](Cc1ccc(O)cc1)C(=O)N[C@H]1CSSC[C@@H](C(=O)N[C@@H](Cc2c[nH]c3ccc(F)cc23)C(=O)N[C@@H](Cc2ccccc2)C(=O)N[C@H](C(=O)N[C@H](CCCCNC(=O)CN2CCN(CC(=O)O)CCN(CC(=O)O)CCN(CC(=O)O)CC2)C(=O)O)C(C)(C)O)NC(=O)[C@H](Cc2ccc(OS(=O)(=O)F)cc2)NC(=O)[C@H](C(C)C)NC(=O)[C@H](CC(=O)O)NC(=O)[C@H](CC2CCOCC2)NC(=O)[C@H](CCCCN)NC(=O)CNC(=O)[C@H](C(C)(C)C)NC1=O` [Cpd #389, Ac-hLeu-Y-C-Tbg-G-K-ThpA-D-V-FSY-C-5FW-F-hydroxyVal-dLys(DOTA)-COOH] (Ac-[hLeu]YC[Tle]GK[Ala(4-THP)]DV[Tyr(SO2F)]C[Trp(5-F)]F[Val(3-OH)][dK](DOTA)-OH; disulfide 3-11) had a Kd below 1 nM.

For `CCCC[C@H](NC(C)=O)C(=O)N[C@@H](Cc1ccc(O)cc1)C(=O)N[C@H]1CSSC[C@@H](C(=O)N[C@@H](Cc2c[nH]c3ccccc23)C(=O)N[C@@H](Cc2ccccc2)C(=O)N[C@H](C(=O)N[C@H](CCCCNC(=O)CN2CCN(CC(=O)O)CCN(CC(=O)O)CCN(CC(=O)O)CC2)C(=O)O)[C@@H](C)O)NC(=O)[C@H](Cc2ccc(O)cc2)NC(=O)[C@H](C(C)C)NC(=O)[C@H](CC(=O)O)NC(=O)[C@H](CCCC(=O)O)NC(=O)[C@H](CCCCN)NC(=O)CNC(=O)[C@H](C(C)C)NC1=O` [compound 116, Ac-Nle-Y-C-V-G-K-HomoGlu-D-V-Y-C-W-F-Thr-dLys(DOTA)-COOH] (Ac-[Nle]YCVGK[Aad]DVYCWFT[dK](DOTA)-OH; disulfide 3-11), the Kd under setting [2] was 10 to 100 nM.

`CC[C@H](C)[C@@H]1NC(=O)[C@@H](NC(=O)[C@H](Cc2ccc(O)cc2)NC(=O)[C@H](CCC(C)C)NC(C)=O)CSSC[C@@H](C(=O)N[C@@H](Cc2c[nH]c3ccc(F)cc23)C(=O)N[C@@H](Cc2ccccc2)C(=O)N(C)[C@@H](CO)C(N)=O)NC(=O)[C@H](Cc2ccc(O)cc2)NC(=O)[C@H](C(C)C)NC(=O)[C@H](CC(=O)O)NC(=O)[C@H](CC2CCCCC2)NC(=O)[C@H](CCCCNC(=O)CN2CCN(CC(=O)O)CCN(CC(=O)O)CCN(CC(=O)O)CC2)NC(=O)CNC1=O` [compound 232, Ac-hLeu-Y-C-Ile-G-Lys(DOTA)-CHA-D-V-Y-C-5FW-F-NMeSer-CONH2] (Ac-[hLeu]YCIGK(DOTA)[Cha]DVYC[Trp(5-F)]F[NMeS]-NH2; disulfide 3-11) yielded a Kd under setting [2] of 10 to 100 nM.

Compound `CC(=O)N[C@@H](CCC(C)C)C(=O)N[C@@H](Cc1ccc(O)cc1)C(=O)N[C@H]1CSSC[C@@H](C(=O)N[C@@H](Cc2c[nH]c3ccc(F)cc23)C(=O)N[C@@H](Cc2ccccc2)C(=O)N(C)[C@@H](CO)C(=O)N[C@H](CCCCNC(=O)CN2CCN(CC(=O)O)CCN(CC(=O)O)CCN(CC(=O)O)CC2)C(N)=O)NC(=O)[C@H](Cc2ccc(O)cc2)NC(=O)[C@H](C(C)C)NC(=O)[C@H](CC(=O)O)NC(=O)[C@H](CC2CCCCC2)NC(=O)[C@H](CC2CCNCC2)NC(=O)CNC(=O)[C@H](C(C)C)NC1=O` [compound 236, Ac-hLeu-Y-C-V-G-PipAla-CHA-D-V-Y-C-5FW-F-NMeSer-dLys(DOTA)-CONH2] (Ac-[hLeu]YCVG[Ala(piperidin-4-yl)][Cha]DVYC[Trp(5-F)]F[NMeS][dK](DOTA)-NH2; disulfide 3-11) yielded a dissociation constant Kd under setting [2] below 1 nM.

`CC(=O)N[C@@H](CCC(C)C)C(=O)N[C@@H](Cc1ccc(O)cc1)C(=O)N[C@H]1CSSC[C@@H](C(=O)N[C@@H](Cc2c[nH]c3ncccc23)C(=O)N[C@@H](Cc2ccccc2)C(=O)N[C@H](C(=O)N[C@H](CCCCNC(=O)CN2CCN(CC(=O)O)CCN(CC(=O)O)CCN(CC(=O)O)CC2)C(N)=O)[C@@H](C)O)NC(=O)[C@H](Cc2ccc(O)cc2)NC(=O)[C@H](C(C)C)NC(=O)[C@H](CC(=O)O)NC(=O)[C@H](Cc2ccc(O)cc2)NC(=O)[C@H](CCCCN)NC(=O)CNC(=O)[C@H](C(C)C)NC1=O` [compound 156, Ac-hLeu-Y-C-V-G-K-Y-D-V-Y-C-7NW-F-Thr-dLys(DOTA)-CONH2] (Ac-[hLeu]YCVGKYDVYC[Trp(7-aza)]FT[dK](DOTA)-NH2; disulfide 3-11) yielded a Kd under setting [2] of 10 to 100 nM.

Under setting [1], `CC(=O)N[C@@H](CCC(C)C)C(=O)N[C@@H](Cc1ccc(O)cc1)C(=O)N[C@H]1CSSC[C@@H](C(=O)N[C@@H](Cc2c[nH]c3ccc(F)cc23)C(=O)N[C@@H](Cc2ccccc2C)C(=O)N[C@H](C(=O)N[C@H](CCCCNC(=O)CN2CCN(CC(=O)O)CCN(CC(=O)O)CCN(CC(=O)O)CC2)C(=O)O)C(C)(C)O)NC(=O)[C@H](Cc2ccc(O)cc2)NC(=O)[C@H](C(C)C)NC(=O)[C@H](CC(=O)O)NC(=O)[C@H](CC2CCOCC2)NC(=O)[C@H](CC2CCNCC2)NC(=O)CNC(=O)[C@H](C(C)(C)C)NC1=O` [compound 456, Ac-hLeu-Y-C-Tbg-G-PipAla-ThpA-D-V-Y-C-5FW-2MePhe-hydroxyVal-dLys(DOTA)-COOH] (Ac-[hLeu]YC[Tle]G[Ala(piperidin-4-yl)][Ala(4-THP)]DVYC[Trp(5-F)][Phe(2-Me)][Val(3-OH)][dK](DOTA)-OH; disulfide 3-11) had a Kd below 1 nM.

`CCCC[C@H](NC(C)=O)C(=O)N[C@@H](Cc1ccc(O)cc1)C(=O)N[C@H]1CSSC[C@@H](C(=O)N[C@@H](Cc2c[nH]c3ccccc23)C(=O)N[C@@H](Cc2ccccc2)C(=O)N[C@H](C(=O)N[C@H](CCCCNC(=O)CN2CCN(CC(=O)O)CCN(CC(=O)O)CCN(CC(=O)O)CC2)C(N)=O)[C@@H](C)O)NC(=O)[C@H](Cc2ccc(O)cc2)NC(=O)[C@H](C(C)C)NC(=O)[C@H](CC(=O)O)NC(=O)[C@H](Cc2ccc(O)cc2)NC(=O)[C@H](CCCCN)NC(=O)CNC(=O)[C@H](C(C)(C)C)NC1=O` [compound 61, Ac-Nle-Y-C-Tbg-G-K-Y-D-V-Y-C-W-F-Thr-dLys(DOTA)-CONH2] (Ac-[Nle]YC[Tle]GKYDVYCWFT[dK](DOTA)-NH2; disulfide 3-11) came in with a Kd under setting [2] of 1 to 10 nM.

As for `CC(=O)N[C@@H](CCC(C)C)C(=O)N[C@@H](Cc1ccc(O)cc1)C(=O)N[C@H]1CSSC[C@@H](C(=O)N[C@@H](Cc2c[nH]c3ccc(F)cc23)C(=O)N[C@@H](Cc2ccccc2)C(=O)N2CCC[C@H]2C(=O)N[C@H](CCCCNC(=O)CN2CCN(CC(=O)O)CCN(CC(=O)O)CCN(CC(=O)O)CC2)C(=O)O)NC(=O)[C@H](Cc2ccc(O)cc2)NC(=O)[C@H](C(C)C)NC(=O)[C@H](CC(=O)O)NC(=O)[C@H](CC2CCOCC2)NC(=O)[C@H](CCCN)NC(=O)CNC(=O)[C@H](C(C)(C)C)NC1=O` [compound 312, Ac-hLeu-Y-C-Tbg-G-Orn-ThpA-D-V-Y-C-5FW-F-Pro-dLys(DOTA)-COOH] (Ac-[hLeu]YC[Tle]G[Orn][Ala(4-THP)]DVYC[Trp(5-F)]FP[dK](DOTA)-OH; disulfide 3-11), under setting [2], the Kd lay in the range of 1 to 10 nM.

In the case of `CCCC[C@H](NC(C)=O)C(=O)N[C@@H](Cc1ccc(O)cc1)C(=O)N[C@H]1CSSC[C@@H](C(=O)N[C@@H](Cc2c[nH]c3ccccc23)C(=O)N[C@@H](Cc2ccccc2)C(=O)N[C@H](C(=O)N[C@H](CCCCNC(=O)CN2CCN(CC(=O)O)CCN(CC(=O)O)CCN(CC(=O)O)CC2)C(N)=O)[C@@H](C)O)NC(=O)[C@H](Cc2ccc(O)cc2)NC(=O)[C@H](C(C)C)NC(=O)[C@H](CC(=O)O)NC(=O)[C@H](Cc2ccc(O)cc2)NC(=O)[C@H](CCCC)NC(=O)CNC(=O)[C@H](C(C)C)NC1=O` [compound 66, Ac-Nle-Y-C-V-G-Nle-Y-D-V-Y-C-W-F-Thr-dLys(DOTA)-CONH2] (Ac-[Nle]YCVG[Nle]YDVYCWFT[dK](DOTA)-NH2; disulfide 3-11), under setting [2], the Kd lay in the range of 10 to 100 nM.

Turning to `CC(=O)N[C@@H](CCC(C)C)C(=O)N[C@@H](Cc1ccc(O)cc1)C(=O)N[C@H]1CSSC[C@@H](C(=O)N[C@@H](Cc2c[nH]c3ccc(F)cc23)C(=O)N[C@H](C(=O)N[C@H](C(=O)NCC(=O)O)C(C)(C)O)[C@@H](C)c2ccccc2)NC(=O)[C@H](Cc2ccc(O)cc2)NC(=O)[C@H](C(C)C)NC(=O)[C@H](CC(=O)O)NC(=O)[C@H](CC2CCN(C(=O)CCOCCOCCOCCOCCNC(=O)CN3CCN(CC(=O)O)CCN(CC(=O)O)CCN(CC(=O)O)CC3)CC2)NC(=O)[C@H](CC2CCNCC2)NC(=O)CNC(=O)[C@H](C(C)(C)C)NC1=O` [compound 510, Ac-hLeu-Y-C-Tbg-G-PipAla-Pip(PEG4-DOTA)Ala-D-V-Y-C-5FW-[(2S, 3S)beta-Me-Phe]-hydroxyVal-Gly-COOH] (Ac-[hLeu]YC[Tle]G[Ala(piperidin-4-yl)][Ala(piperidin-4-yl)]([PEG4-DOTA])DVYC[Trp(5-F)][X1][Val(3-OH)]G-OH; disulfide 3-11), the Kd under setting [1] was below 1 nM.
